From patent US10532075B2, “Use of a particular extract of propolis for combating the side effects of chemotherapy” (POLLENERGIE, priority 2014, dated 2020)

What was measured:
[1] = in-vivo side effects of chemotherapy: change in weight of the animals
Source text: (§1) Wistar rats of approximately 200 g were used during this in-vivo experiment, at a rate of 8 animals per group. […] The animals are sacrificed 21 days after the injection of the chemotherapy agent. The weight and the different parameters of the blood formula will be tracked in these animals on days D+1, D+6 and D+14 and D+21 post-chemotherapy injection. The contents of endogenic antioxidants (glutathione=GSH) and the hepatocytic lipid peroxidation (MDA) levels will be evaluated on D+21.

red blood cells = experiment: in-vivo side effects of chemotherapy: change in red blood cells
Source text: as §1

white blood cells = experiment: in-vivo side effects of chemotherapy: change in white blood cells
Source text: as §1

plasmatic creatinine = experiment: in-vivo side effects of chemotherapy: plasmatic creatinine
Source text: as §1

[2] = tested on: plasmatic glutathione (GSH); experiment: in-vivo side effects of chemotherapy: plasmatic glutathione
Source text: as §1
(§2) The chemotherapy agents also have an impact on the primary intracellular antioxidant: glutathione (GSH) and on oxidative damage through the formation of diene conjugates, which is a reflection of the lipid peroxidation of the cellular membranes (the MDA) on the plasmatic level. These two measurements are complementary since normally a correct level of GSH makes it possible to maintain a relatively low level of MDA.

plasma MDA = experiment: in-vivo side effects of chemotherapy: plasma MDA
Source text: as §1, §2

[3] = tested on: Primary hepatocytes of rats; experiment: reversion of chemotherapy agent toxicity: hepatocyte cytolysis after propolis pretreatment, then tamoxifen; type: cell-based; conditions: tamoxifen alone
Experimental: Primary hepatocytes of rats were sampled and inoculated into a 96-well plate. 24 hours after the inoculation, the hepatocytes were treated with different doses of propolis (Example 1) for 24 hours.
The percentage of hepatic cells that are cytolyzed after a pretreatment with different concentrations of propolis and then subjected to a cytotoxic concentration of tamoxifen (25 μM) was evaluated and presented in the table below: […]

[4] = chemotherapy agent alone, D + 1 post-injection
[5] = chemotherapy agent alone, D + 6 post-injection
[6] = chemotherapy agent alone, D + 14 post-injection
[7] = chemotherapy agent alone, D + 21 post-injection
[8] = chemotherapy agent alone, D − 5 (before treatment)
[9] = chemotherapy agent alone, 21st day post-injection
[10] = chemotherapy agent alone, 21st day

SMILES: COc1cccc2c1C(=O)c1c(O)c3c(c(O)c1C2=O)C[C@@](O)(C(=O)CO)C[C@@H]3O[C@H]1C[C@H](N)[C@@H](O)[C@H](C)O1 [Epirubicin, epirubicin]
- weight of the animals ([1]; rat, in vivo): 150.2
- weight: Variation between D + 1 and D + 21 ([1]; rat, in vivo): −0.9
- red blood cells (red blood cells; rat, in vivo): 6.73 10^6/µL
- red blood cells: Variation between D + 1 and D + 21 (red blood cells; rat, in vivo): −48%
- reduction in red blood cells (red blood cells; rat, in vivo): 48%
- white blood cells (white blood cells; rat, in vivo): 6.79
- white blood cells: Variation between D − 5 and D + 21 (white blood cells; rat, in vivo): −46%
- plasmatic creatinine: Variation between D − 5 and D + 21 (plasmatic creatinine; rat, in vivo): +60%
- effect on the level of plasma GSH (in words) ([2]; rat, in vivo): very distinct significant decrease in the level of plasma GSH
- plasmatic glutathione ([2]; rat, in vivo): 23.86
- plasmatic glutathione: Variation between D − 5 and D + 21 ([2]; rat, in vivo): −46%
- plasma MDA (plasma MDA; rat, in vivo): 46.61
- plasma MDA: Variation between D − 5 and D + 21 (plasma MDA; rat, in vivo): +83%

SMILES: O=P1(N(CCCl)CCCl)NCCCO1 (stereo not shown) [Cyclophosphamide, cyclophosphamide]
- weight: Variation between D + 1 and D + 21 ([1]; chemotherapy agent alone): −14.9
- weight of the animals [1, 4]: 167.2
- weight of the animals [1, 5]: 157.7
- weight of the animals [1, 6]: 164
- weight of the animals [1, 7]: 152.3
- weight of the animals [1, 8]: 160.4
- red blood cells: Variation between D + 1 and D + 21 (red blood cells; chemotherapy agent alone): −46%
- reduction in red blood cells (red blood cells; [9]): 45%
- red blood cells (red blood cells; [4]): 5.94
- red blood cells (red blood cells; [5]): 4.23
- red blood cells (red blood cells; [6]): 3.80
- red blood cells (red blood cells; [7]): 3.22
- red blood cells (red blood cells; [8]): 6.51
- white blood cells: Variation between D − 5 and D + 21 (white blood cells; chemotherapy agent alone): −49%
- white blood cells (white blood cells; [4]): 3.33
- white blood cells (white blood cells; [5]): 2.96
- white blood cells (white blood cells; [6]): 10.20
- white blood cells (white blood cells; [7]): 3.19
- white blood cells (white blood cells; [8]): 6.30
- plasmatic creatinine: Variation between D − 5 and D + 21 (plasmatic creatinine; chemotherapy agent alone): +59%
- plasmatic creatinine (plasmatic creatinine; [4]): 7.25
- plasmatic creatinine (plasmatic creatinine; [7]): 10.14
- plasmatic creatinine (plasmatic creatinine; [8]): 6.38
- plasmatic glutathione: Variation between D − 5 and D + 21 ([2]; chemotherapy agent alone): −10%
- effect on the level of plasma GSH (in words) [2, 10]: a little less distinct
- plasmatic glutathione [2, 7]: 23.81
- plasmatic glutathione [2, 8]: 26.39
- plasma MDA: Variation between D − 5 and D + 21 (plasma MDA; chemotherapy agent alone): +48%
- plasma MDA (plasma MDA; [7]): 79.10
- plasma MDA (plasma MDA; [8]): 43.78

SMILES: CC/C(=C(\c1ccccc1)c1ccc(OCCN(C)C)cc1)c1ccccc1 [Tamoxifen, tamoxifen]
- cytolysis of hepatocytes (in words) [3]: dose-dependent cytolysis of hepatocytes

SMILES: CC(=O)O[C@@]12CO[C@@H]1C[C@H](O)[C@@]1(C)C(=O)[C@H](O)C3=C(C)[C@@H](OC(=O)[C@H](O)[C@@H](NC(=O)OC(C)(C)C)c4ccccc4)C[C@@](O)([C@@H](OC(=O)c4ccccc4)[C@H]21)C3(C)C [Taxotere, taxotere]
- weight of the animals ([1]; rat, in vivo): 151.6
- weight: Variation between D + 1 and D + 21 ([1]; rat, in vivo): +18.6
- red blood cells (red blood cells; rat, in vivo): 6.39 10^6/µL
- red blood cells: Variation between D + 1 and D + 21 (red blood cells; rat, in vivo): −52%
- reduction in red blood cells (red blood cells; rat, in vivo): 52%
- white blood cells (white blood cells; rat, in vivo): 6.44
- white blood cells: Variation between D − 5 and D + 21 (white blood cells; rat, in vivo): −51%
- plasmatic creatinine (plasmatic creatinine; rat, in vivo): 7.60
- plasmatic creatinine: Variation between D − 5 and D + 21 (plasmatic creatinine; rat, in vivo): +52%
- effect on the level of plasma GSH (in words) ([2]; rat, in vivo): very distinct significant decrease in the level of plasma GSH
- plasmatic glutathione ([2]; rat, in vivo): 22.88
- plasmatic glutathione: Variation between D − 5 and D + 21 ([2]; rat, in vivo): −26%
- plasma MDA (plasma MDA; rat, in vivo): 45.90
- plasma MDA: Variation between D − 5 and D + 21 (plasma MDA; rat, in vivo): +88%

SMILES: O=c1[nH]cc(F)c(=O)[nH]1 [Powder 5-FU, 5-FU]
- weight: Variation between D + 1 and D + 21 ([1]; chemotherapy agent alone): −13.9
- weight of the animals [1, 4]: 157.6
- weight of the animals [1, 5]: 153.7
- weight of the animals [1, 6]: 147.9
- weight of the animals [1, 7]: 143.7
- weight of the animals [1, 8]: 153.5
- red blood cells: Variation between D + 1 and D + 21 (red blood cells; chemotherapy agent alone): −55%
- reduction in red blood cells (red blood cells; [9]): 55%
- red blood cells (red blood cells; [4]): 6.56
- red blood cells (red blood cells; [5]): 4.19
- red blood cells (red blood cells; [6]): 3.05
- red blood cells (red blood cells; [7]): 2.94
- red blood cells (red blood cells; [8]): 6.51
- white blood cells: Variation between D − 5 and D + 21 (white blood cells; chemotherapy agent alone): −40%
- white blood cells (white blood cells; [4]): 3.91
- white blood cells (white blood cells; [5]): 2.74
- white blood cells (white blood cells; [6]): 10.82
- white blood cells (white blood cells; [7]): 3.86
- white blood cells (white blood cells; [8]): 6.49
- plasmatic creatinine: Variation between D − 5 and D + 21 (plasmatic creatinine; chemotherapy agent alone): +41%
- plasmatic creatinine (plasmatic creatinine; [4]): 9
- plasmatic creatinine (plasmatic creatinine; [7]): 10.19
- plasmatic creatinine (plasmatic creatinine; [8]): 7.25
- plasmatic glutathione: Variation between D − 5 and D + 21 ([2]; chemotherapy agent alone): −20%
- effect on the level of plasma GSH (in words) [2, 10]: very distinct significant decrease in the level of plasma GSH
- plasmatic glutathione [2, 7]: 17.65
- plasmatic glutathione [2, 8]: 22.14
- plasma MDA: Variation between D − 5 and D + 21 (plasma MDA; chemotherapy agent alone): +41%
- plasma MDA (plasma MDA; [7]): 62.85
- plasma MDA (plasma MDA; [8]): 44.49
